# US20160015770A1, “COMPOSITIONS FOR TREATMENT OF RETINAL DETACHMENT” (THE REGENTS OF THE UNIVERSITY OF MICHIGAN, priority 2013, published 2016)
# “Also recorded” adds a separate entry of the source.
# Experiments:
# 661W cells = assay: Western blot of autophagy markers LC3-II and Atg5-12 in 661W cells treated with Fas activating antibody; type: cell-based, mouse; design: presence of LC3-II and Atg5-12 over time (prolongation of autophagy): dose or concentration left out as unconfirmed; details: Fas activation
# Procedure: The 661W photoreceptor cell line was generously provided by Dr. Muayyad Al-Ubaidi (Department of Cell Biology, University of Oklahoma Health Sciences Center, Oklahoma City, Okla.). The 661W cell line was maintained in Dulbecco's modified Eagle's medium containing 10% fetal bovine serum, 300 mg/L glutamine, 32 mg/L putrescine, 40 μL/L β-mercaptoethanol, and 40 μg/L of both hydrocortisone 21-hemisuccinate and progesterone. The media also contained penicillin (90 units/mL) and streptomycin (0.09 mg/mL). Cells were grown at 37° C. in a humidified atmosphere of 5% CO2 and 95% air. Retinas from experimental eyes with detachment (detached portion of retina only) and control eyes without detachment were dissected from the RPE-choroid, homogenized, and lysed in buffer containing 10 mM HEPES (pH 7.6), 0.5% […], 42 mM KCl, 1 mM phenylmethylsulfonyl fluoride, 1 mM EDTA, 1 mM EGTA, 1 mM dithiothreitol, 5 mM MgCl2, and one tablet of protease inhibitors per 10 mL buffer (Complete Mini; Roche Diagnostics GmbH, Madison, Wis.). 661W cells were plated at 150,000 cells per well in six-well culture dishes in growth media. […] The protein concentration of the supernatant was then determined (DC Protein Assay kit; Bio-Rad Laboratories, Hercules, Calif.). The protein samples were separated on SDS-polyacrylamide gels (Tris-HCl Ready Gels; Bio-Rad Laboratories). […]
# calpain 1 = molecular target: T1, calpain 1 (Rattus norvegicus, UniProt P97571); assay: Experimental retinal detachment, western blot of calpain 1 specific cleaved alpha-spectrin in retina; type: in vivo; details: 0.2 μg subretinal at time of detachment, 7 days after detachment, vs vehicle (DMSO)
# T1 construct: Retinas from experimental eyes with detachment (detached portion of retina only) and control eyes without detachment were dissected from the RPE-choroid, homogenized, and lysed; from tissue; host or cells: rat retina (in vivo retinal detachment model)
# T1 sequence (P97571 1-713): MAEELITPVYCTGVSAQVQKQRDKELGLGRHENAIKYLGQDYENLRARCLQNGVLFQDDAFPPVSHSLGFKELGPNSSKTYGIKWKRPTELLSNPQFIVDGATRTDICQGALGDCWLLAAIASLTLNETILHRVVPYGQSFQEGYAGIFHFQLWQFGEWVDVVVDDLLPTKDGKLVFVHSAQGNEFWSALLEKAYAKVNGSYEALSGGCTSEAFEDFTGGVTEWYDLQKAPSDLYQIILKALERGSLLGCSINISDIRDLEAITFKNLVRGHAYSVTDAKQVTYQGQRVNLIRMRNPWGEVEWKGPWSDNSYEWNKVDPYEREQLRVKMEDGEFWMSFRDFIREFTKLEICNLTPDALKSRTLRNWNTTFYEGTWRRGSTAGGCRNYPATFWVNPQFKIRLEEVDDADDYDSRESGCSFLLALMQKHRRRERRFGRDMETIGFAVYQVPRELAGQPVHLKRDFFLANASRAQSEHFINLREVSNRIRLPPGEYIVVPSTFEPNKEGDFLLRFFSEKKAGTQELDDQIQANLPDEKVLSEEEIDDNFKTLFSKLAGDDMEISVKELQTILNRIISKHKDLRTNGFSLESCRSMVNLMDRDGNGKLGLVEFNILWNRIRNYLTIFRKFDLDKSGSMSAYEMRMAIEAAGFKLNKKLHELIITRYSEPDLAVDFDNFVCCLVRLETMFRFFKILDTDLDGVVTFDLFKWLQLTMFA
# T1 sequence (Q64537 1-270 partner): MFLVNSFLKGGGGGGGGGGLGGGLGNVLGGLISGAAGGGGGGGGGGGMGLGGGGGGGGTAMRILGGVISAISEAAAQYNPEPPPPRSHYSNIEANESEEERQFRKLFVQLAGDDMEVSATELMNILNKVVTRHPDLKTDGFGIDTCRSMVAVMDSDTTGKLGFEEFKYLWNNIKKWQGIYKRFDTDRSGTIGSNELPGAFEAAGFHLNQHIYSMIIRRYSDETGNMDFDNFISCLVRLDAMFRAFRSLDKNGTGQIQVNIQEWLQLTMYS
# Text: Detachments were created in adult male Brown-Norway rats (300-400 g; Charles River Laboratories, Wilmington, Mass.) as described previously. Briefly, rodents were anesthetized with a 50:50 mix of ketamine/xylazine, and pupils were dilated with topical phenylephrine (2.5%) and tropicamide (1%). A 20-gauge microvitreoretinal blade was used to create a sclerotomy 2 mm posterior to the limbus, carefully avoiding lens damage. A subretinal injector (Glaser, 32-gauge tip; BD Ophthalmic Systems, Franklin Lakes, N.J.) was introduced through the sclerotomy into the vitreous cavity and then through a peripheral retinotomy into the subretinal space. […]
# Retinas from experimental eyes with detachment (detached portion of retina only) and control eyes without detachment were dissected from the RPE-choroid, homogenized, and lysed in buffer containing 10 mM HEPES (pH 7.6), 0.5% IgEPal, 42 mM KCl, 1 mM phenylmethylsulfonyl fluoride, 1 mM EDTA, 1 mM EGTA, 1 mM dithiothreitol, 5 mM MgCl2, and one tablet of protease inhibitors per 10 mL buffer (Complete Mini; Roche Diagnostics GmbH, Madison, Wis.). […] The protein concentration of the supernatant was then determined (DC Protein Assay kit; Bio-Rad Laboratories, Hercules, Calif.). The protein samples were separated on SDS-polyacrylamide gels (Tris-HCl Ready Gels; Bio-Rad Laboratories). […]
smiles,measurement,setting,value
CCCC[C@@H](C=O)NC(=O)[C@H](CC(C)C)NC(=O)OCc1ccccc1 [calpeptin],dose at which LC3-II and Atg5-12 peaked (dose response for increasing autophagy),661W cells; 24 hours,25 µM
same,presence of LC3-II and Atg5-12 over time (prolongation of autophagy),"661W cells; various lengths of time, calpeptin as printed, vs Fas activation alone / DMSO",lasted for an extended period of time; also recorded: elongated presence of LC3-II and Atg5-12
same,cleaved calpain 1 specific alpha-spectrin in retina,calpain 1,significantly less; also recorded: less cleaved alpha-spectrin
